Laboratory results as given in patent US10155021B2, “Antimicrobial 4-oxoquinolizines” (Emergent Product Development Gaithersburg Inc., priority 2011, dated 2018).
Converted amounts (≈) assume the structure as drawn. Read-outs that look alike come from different tables or passages of the source.

Legend:
A. baumannii A329 [1] = experiment: MIC determination for Acinetobacter strains (Example 3); format: cell-based; details: LEV R, CIP R, MRP R, IMP R, AMK R, TET R
A. baumannii A401 [2] = experiment: MIC without and with sub-inhibitory polymyxin B (Example 4); format: cell-based, Acinetobacter baumannii; details: for MIC +0.06 μg/ml PB: +0.06 μg/ml polymyxin B; for MIC: Acinetobacter baumannii, A401, A baumannii A 401, without polymyxin B, read-out: MIC without PB
[3] = tested on: resistant strains of A. baumannii and one strain of Acinetobacter sp.; experiment: MIC without and with sub-inhibitory polymyxin B, whole panel / MIC ranges (Example 4; also strains not listed separately); format: cell-based; details: for MIC +0.06 μg/ml PB: +0.06 μg/ml polymyxin B; for MIC without PB/MIC + PB: ratio; for MIC +[…] PB: +[…] polymyxin B; for MIC: Acinetobacter baumannii
A. baumannii A401 [4] = experiment: Preliminary MBC without and with sub-inhibitory polymyxin B (Example 4); format: cell-based, Acinetobacter baumannii; details: preliminary MBC; for MBC +0.06 μg/ml PB: A baumannii A 401, +0.06 μg/ml polymyxin B; for MBC: Acinetobacter baumannii, A401, A baumannii A 401, without polymyxin B, read-out: MBC without PB
A. baumannii J2 = experiment: MIC without and with sub-inhibitory polymyxin B (Example 4); format: cell-based, Acinetobacter baumannii; details: for MIC +[…] PB / MIC without PB/MIC + PB: A. baumannii J2; for MIC +[…] PB: +[…] polymyxin B; for MIC without PB/MIC + PB: ratio; for MIC: Acinetobacter baumannii, J2, A. baumannii J2, without polymyxin B
A. baumannii A472 = experiment: as above; format: cell-based, Acinetobacter baumannii; details: for MIC +[…] PB: +[…] polymyxin B; for MIC: Acinetobacter baumannii, A472, A. baumannii A472, without polymyxin B, read-out: MIC without PB
A. baumannii A329 [5] = experiment: as above; format: cell-based, Acinetobacter baumannii; details: for MIC: Acinetobacter baumannii, A329, A. baumannii A329, without polymyxin B, read-out: MIC without PB

MIC (A. baumannii A329 [1]): 128 µg/mL (≈ 428 µM)
MIC +0.06 μg/ml PB (A. baumannii A401 [2]; A baumannii A 401, 1st experiment): 8 µg/mL
MIC +0.06 μg/ml PB (A. baumannii A401 [2]; A baumannii A 401, 2nd experiment, visual reading): 4 µg/mL
MIC ratio without/with polymyxin B (A. baumannii A401 [2]; A baumannii A 401, ratio MIC without PB to MIC + PB, PB 0.06 μg/ml, 2nd experiment): 8 µg/mL
MIC without PB/MIC + PB (A. baumannii A401 [2]; A baumannii A 401, ratio, PB 0.06 μg/ml, 1st experiment): 4
MIC (A. baumannii A401 [2]; 1st experiment): 32 µg/mL (≈ 107 µM)
MIC (A. baumannii A401 [2]; 2nd experiment, visual reading): 32 µg/mL (≈ 107 µM)
Range ratios MIC without PB/MIC with PB 01-10-2008 n = 8 ([3]; 1st experiment, 8 strains): 1-64
Range ratios MIC without PB/MIC with PB 14-10-2008 n = 11 ([3]; 2nd experiment, 11 strains): 1-256
MIC +0.06 μg/ml PB ([3]; A. baumannii A14, 1st experiment): 1 µg/mL
MIC +0.06 μg/ml PB ([3]; A. baumannii A14, 2nd experiment, visual reading): 1 µg/mL
MIC without PB/MIC + PB ([3]; A. baumannii A14, PB 0.06 μg/ml, 1st experiment): 1
MIC without PB/MIC + PB ([3]; A. baumannii A14, PB 0.06 μg/ml, 2nd experiment): 1
MIC +[…] PB ([3]; A. baumannii NCTC 13301, 1st experiment): 16 µg/mL (≈ 53.4 µM)
MIC +[…] PB ([3]; A. baumannii NCTC 13301, 2nd experiment, visual reading): 1 µg/mL (≈ 3.34 µM)
MIC without PB/MIC + PB ([3]; A. baumannii NCTC 13301, PB […], 1st experiment): 8
MIC without PB/MIC + PB ([3]; A. baumannii NCTC 13301, PB […], 2nd experiment): 128
MIC ([3]; A. baumannii A14, without polymyxin B, 1st experiment, read-out: MIC without PB): 1 µg/mL (≈ 3.34 µM)
MIC ([3]; A. baumannii A14, without polymyxin B, 2nd experiment, visual reading, read-out: MIC without PB): 1 µg/mL (≈ 3.34 µM)
MIC ([3]; NCTC13301, A. baumannii NCTC 13301, without polymyxin B, 1st experiment, read-out: MIC without PB): 128 µg/mL (≈ 428 µM)
MIC ([3]; NCTC13301, A. baumannii NCTC 13301, without polymyxin B, 2nd experiment, visual reading, read-out: MIC without PB): 128 µg/mL (≈ 428 µM)
MIC ([3]; read-out: MIC range without PB 01-10-2008 n = 8, without polymyxin B, 1st experiment, 8 strains): 1 to 128 µg/mL (≈ 3.34 to 428 µM)
MIC range with PB ([…] MIC) 01-10-2008 n = 8 ([3]; with polymyxin B […] MIC, 1st experiment, 8 strains): <0.125-16 μg/ml
MIC +[…] PB (A. baumannii J2; 1st experiment): ≤0.125 µg/mL
MIC +[…] PB (A. baumannii J2; 2nd experiment, visual reading): ≤0.125 µg/mL
MIC without PB/MIC + PB (A. baumannii J2; 1st experiment): ≥32
MIC without PB/MIC + PB (A. baumannii J2; 2nd experiment): ≥64
MIC (A. baumannii J2; 1st experiment, read-out: MIC without PB): 4 µg/mL (≈ 13.4 µM)
MIC (A. baumannii J2; 2nd experiment, MIC read with alamar blue, read-out: MIC without PB, read with alamar blue): 4 µg/mL (≈ 13.4 µM)
MIC (A. baumannii J2; 2nd experiment, visual reading, read-out: MIC without PB): 8 µg/mL (≈ 26.7 µM)
MIC +[…] PB (A. baumannii A472; A. baumannii A472, 1st experiment): 0.25 µg/mL (≈ 0.835 µM)
MIC +[…] PB (A. baumannii A472; A. baumannii A472, 2nd experiment, visual reading): 0.25 µg/mL (≈ 0.835 µM)
MIC ratio without/with polymyxin B (A. baumannii A472; A. baumannii A472, ratio MIC without PB to MIC + PB, PB […], 2nd experiment): 32 µg/mL
MIC without PB/MIC + PB (A. baumannii A472; A. baumannii A472, ratio, PB […], 1st experiment): 64
MIC (A. baumannii A472; 1st experiment): 16 µg/mL (≈ 53.4 µM)
MIC (A. baumannii A472; 2nd experiment, visual reading): 8 µg/mL (≈ 26.7 µM)
MIC +0.06 μg/ml PB (A. baumannii A329 [5]; A. baumannii A329, +0.06 μg/ml polymyxin B, 2nd experiment, visual reading): 128 µg/mL
MIC without PB/MIC + PB (A. baumannii A329 [5]; A. baumannii A329, ratio, PB 0.06 μg/ml, 2nd experiment): ≥1
MIC (A. baumannii A329 [5]; 1st experiment): 128 µg/mL (≈ 428 µM)
MIC (A. baumannii A329 [5]; 2nd experiment, visual reading): > 128 µg/mL
SMILES: C[C@@H](O)[C@H]1C(=O)N2C(C(=O)O)=C(SCCN=CN)C[C@H]12 [Imipenem, reference compound]
MBC +0.06 μg/ml PB (A. baumannii A401 [4]; 2nd experiment): 4 µg/mL
MBC +0.06 μg/ml PB (A. baumannii A401 [4]; 1st experiment): 8 µg/mL
MBC (A. baumannii A401 [4]; 2nd experiment): 32 µg/mL (≈ 107 µM)
MBC (A. baumannii A401 [4]; 1st experiment): 32 µg/mL (≈ 107 µM)
